# Measured values: patent US6512102B1, “Compositions and methods of diagnosis and treatment using casein kinase I” (Chiron Corporation, priority 1998, dated 2003)
# Test system: Lef-1 dependent transcription
# Assay: Lef-1 enhancer luciferase reporter assay in Cos cells
# Type: cell-based
# Details: GSK3 over-expressed / cotransfected
# Protocol: Combinations of Wnt-1, CKIε, CKI kinase dead variant (lys→arg 38) and Lef-1 were transfected into Cos cells with a luciferase gene driven by multiple copies of Lef enhancer elements. As an internal control of transfection efficiency, the β-galactosidase gene driven by the SV40 promoter was co-transfected in all samples. 24 hours after transfection, cells were lysed and the lysate was tested for luciferase activity. The luciferase activity was normalized with respect to β-galactosidase activity. […] Dorsoanterior index (DAI) grade numbers were assigned to the phenotypes of the embryos. A grade 5 embryo is normal; a grade 3 embryo is cyclopic (one eye); a grade 1 embryo has a tail fin and somites but no head (acephalic); and a grade 0 embryo has no dorsoanterior structures (Kao et al., 1988).
# The effect of CKI on Lef-1 dependent transcription in Cos mammalian cells was examined. A luciferase reporter gene driven by multiple copies of the Lef-I enhancer sequence was used. When only Wnt-I or lef-I or CKIε was transfected with the reporter construct, luciferase activity was induced only 2 to 3 fold (FIG. 1A). When Lef-1 was cotransfected with either Wnt-1 or CKIε, luciferase activity was induced 30 or 12 fold respectively.
# Luciferase reporter plasmid contains multiple Lef-I enhancer sites upstream of the fos basal promoter. […]
substance,measurement,value
GSK3: GSK3 over-expressed from cotransfected plasmid [reference compound],luciferase activity transduced by CKIε,inhibited the effect of CKI in promoting transcription
